Data on 14 molecules can be found in ChEMBL document CHEMBL5126497, “2-Difluoromethylpyridine as a bioisosteric replacement of pyridine-N-oxide: the case of quorum sensing inhibitors” (RSC Med Chem, 2021).

The source made the active and inactive calls. The calls are words filed in the database; no cut-off is given here.

The nature of experiment [1]: Inhibition of quorum sensing system in Pseudomonas aeruginosa transfected with lasB-gfp.
In experiment [2] the test system is Pseudomonas aeruginosa. Nature of the experiment: Inhibition of biofilm formation in Pseudomonas aeruginosa at 100 uM measured after 48 hrs relative to control. The experiment is classed as functional.
For experiment [3], the species on record is Homo sapiens. Description: Activation of protease (unknown origin). The following applies: filed as activator.
A short description of experiment [4]: Inhibition of quorum sensing system in Chromobacterium violaceum ATCC 31352 assessed as reduction in violacein production at 100 uM relative to control.

By inhibition is commonly meant the share of the control response that was lost under treatment. Take `FC(F)c1nccc2ccccc12`: the inhibition entry in experiment [1] is “Active”. As to `FC(F)c1cc(Cc2ccc(Cl)cc2)ccn1`, the inhibition entry in experiment [1] was “Active”. Same read-out and setting: the value for `FC(F)c1cccnc1` was “Active”; that for `FC(F)c1cc(Oc2ccccc2)ccn1` was “Active”.

The term IC50 denotes the point on the concentration scale where inhibition reaches its midpoint. Lower therefore signals higher potency. `N#Cc1ccnc(C(F)F)c1` showed an IC50 in experiment [1] of 19 µM. In experiment [2], this molecule had an inhibition at 100 µM of 85%. For the same molecule, in experiment [3], the outcome was Active. In addition, in experiment [4], the inhibition stood at 66%. In the case of `FC(F)c1ccncc1`, in experiment [1], the inhibition entry is “Active”.

In the case of `O=C(c1ccc(Cl)cc1)c1ccnc(C(F)F)c1`, in experiment [1], the IC50 came out at 35 µM. In addition, the inhibition at 100 µM in experiment [2] came to 73%. Besides, in experiment [3], the result was Active. Moreover, the inhibition in experiment [4] was determined as 57%. Take `N#Cc1cc[n+]([O-])cc1`: the inhibition result in experiment [1] was “Active”. The same measure, in the same setting: the result for `FC(F)c1ccc2ccccc2n1` reads “Active”.

As to `COC(=O)c1ccncc1C(F)F`, the inhibition entry in experiment [1] is “Active”. `COC(=O)c1ccnc(C(F)F)c1` registered an IC50 in experiment [1] of 27 µM. This molecule came in with an inhibition at 100 µM in experiment [2] of 75%. In addition, the outcome in experiment [3] was Active. Moreover, the inhibition in experiment [4] came to 59%. With `FC(F)c1ccccn1`, the inhibition result in experiment [1] was “Active”.

Consider `FC(F)c1cc(-c2ccccc2)ccn1`, for which, in experiment [1], the inhibition entry is “Active”. As for `O=[N+]([O-])c1cc[n+]([O-])cc1`, in experiment [1], half-maximal inhibition (IC50) required 33 µM. Besides, the inhibition at 100 µM in experiment [2] turned out to be 71%. For the same molecule, the result in experiment [3] was Active. For the same molecule, in experiment [4], the inhibition is 37.5%.
